Assays:
Format in all cases: cell-based
H1299 cells = assay: Clonogenic cell survival assay, H1299 cells; conditions: CI>1 synergistic
Protocol: (§1) Using certain embodiments disclosed herein, TTFields in combination with various inhibitors and/or radiation treatment (IR) were applied to NSCLC cells or pancreatic cancer cells. For example, a predetermined inhibitor at a predetermined concentration was delivered to NSCLC cells or pancreatic cancer cells, and the cells were immediately exposed to TTFields (e.g., 100-250 kHz and 1-20 V/cm v/cm) for about 24, […], or 72 hours. The predetermined concentration was a cell line specific concentration for optimal target cell killing. Then, the cells were irradiated (at a dose of 2Gy) for less than a minute (e.g., 3.25 Gy/min) and immediately plated for survival.
(§2) FIGS. 4 and 5 depict example effects of TTFields, AZD6738, radiation, and a combination thereof on non-small cell lung cancer cells (NSCLC) and pancreatic cancer cell, respectively. In particular, FIGS. 4 and 5 show TTFields exposure synergistically increases the effects of ATR inhibitor AZD6738 on NSLCL cells (FIG. 4) survival and pancreatic cancer cell (FIG. 5) survival. TTFields were used together with ATR inhibitor AZD6738 and radiation (IR). A synergistic effect was observed when AZD6738 and IR were combined with TTFields using the highest single agent (HSA) approach. The following formulas were used for calculating CI: SF=Survival Fraction; CI (TTFields)+(2Gy)=(SF2Gy×SFTTFields)/SF2Gy+TTFields; CI(TTFields)+(AZD)=(SFAZD×SFTTFields)/SFAZD+TTFields; CI (2Gy)+(AZD)=(SF2Gy×SFAZD)/SF2Gy+AZD; and CI (TTFields)+(2Gy)+(AZD)=(SF2Gy×SFAZD×SFTTFields)/SFTTFields+2Gy+AZD.
(§3) The following formulas are used for calculating the combination Index: SF=Survival Fraction; CI (TTFields)+(2Gy)=(SF2Gy×SFTTFields)/SF2Gy+TTFields; CI(TTFields)+(Irino)=(SFIrino×SFTTFields)/SFIrino+TTFields; CI (2Gy)+(Irino)=(S2Gy×SFIrino)SF2Gy+Irino; and CI (TTFields)+(2Gy)+(Irino)=(SF2Gy×SFIrino×SFTTFields)/SFTTFields+2Gy+Irino.

H157 cells [1] = assay: Clonogenic cell survival assay, H157 cells; conditions: CI>1 synergistic
Protocol: as §1, §2, §3

NSCLC = assay: Cell survival of NSCLC cells with CP/ETP with/without TTFields (FIG. 6); conditions: HSA approach
Protocol: as §1
FIG. 6 depicts example effects of TTFields, Cisplatin, Etoposide, and a combination thereof on NSCLC. […] CP and ETP were tested alone or in combination and with/without TTFields.

H157 cells [2] = assay: Clonogenic cell survival assay, H157 cells; conditions: 48 h, CI>1 synergistic

Compound: COc1cc([C@@H]2c3cc4c(cc3[C@@H](O[C@@H]3O[C@@H]5CO[C@@H](C)O[C@H]5[C@H](O)[C@H]3O)[C@H]3COC(=O)[C@H]23)OCO4)cc(OC)c1O [ETOP, Etoposide]
- CI TTFields + ETOP (H1299 cells; 24 h): 1.387
- CI TTFields + ETOP (H1299 cells; 48 h): 1.174
- CI TTFields + ETOP (H1299 cells; 72 h): 1.140
- CI TTFields + ETOP (H157 cells [1]; 24 h): 0.842
- CI TTFields + ETOP (H157 cells [1]; 72 h): 1.021
- cell killing capacity in combination with TTFields (NSCLC): synergistically enhanced
- CI TTFields + ETOP (H157 cells [2]): 0.995

— patent US20220288404A1, “METHODS FOR APPLYING TUMOR TREATING FIELDS IN COMBINATION WITH CANCER TREATING THERAPEUTICS” (THE BOARD OF REGENTS OF THE UNIVERSITY OF TEXAS SYSTEM, priority 2021, published 2022)
